The values that follow come from patent publication US9624215B2, “Amine derivative or salt thereof” (TOYAMA CHEMICAL CO., LTD., priority 2012, dated 2017).

Test [1] relates to normal human neonatal foreskin epidermal keratinocytes (NHEK-F). Kind of test: Cell proliferation inhibition test. It counts as cell-based. The following applies: Keratinocyte, 72 h, NHEK-F cells, three days incubation, ATPlite or CellTiterGlo, read-out: IC50 (concentration of the compound at which the cell count is reduced by 50%). The essentials: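 NHEK-F keratinocytes, 2×10^3 per well in Humedia-EG2, plated overnight, then exposed to compound for three days. Cell count by ATPlite or CellTiterGlo luminescence; inhibition = 100 − (treated/untreated count)×100, IC50 as 50% reduction concentration.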
In general terms: Cellular ATP, detected with luciferase, serves as a proxy for viable cell number.

The subject of test [2] is TPA-induced ear edema and acanthosis in Balb/c mice. Put plainly: Mouse TPA-induced ear-swelling model. In kind it is in vivo. The following applies: topical, 240 h, 1% w/v solution, 20 μL applied to ear once a day from day 0 to day 9, female Balb/c mice, read-out: Inhibition rate of change in ear thickness on day 10. As for the experimental part: Seven-week-old female Balb/c mice (Charles River Laboratories Japan) were used. 20 μL of a 20 ng/mL solution of TPA (Wako Pure Chemical Industries, 162-23591) dissolved in 5% DMSO/acetone was applied to the outer side of the mouse ear on day 0, day 2, day 4, day 7 and day 9 to induce ear edema and acanthosis. The test compound was dissolved in a 5% DMSO/acetone solution (concentration: 1% w/v) and 20 μL of the resulting solution was applied to the outer side of the ear once a day from day 0 to day 9. For the control group, a 5% DMSO/acetone solution was similarly applied. The TPA solution and the test compound solution were mixed and applied on the days for TPA application (day 0, day 2, day 4, day 7 and day 9). The ear thickness was chronologically measured on days 0-4 and days 7-10 using a micrometer (Mitutoyo, MDC-25MJT). The change in ear thickness and the inhibition rate were determined by the following formulas. Change in ear thickness=(ear thickness measured on day 10)−(ear thickness measured on day 0 before TPA application) Inhibition rate (%)=100−(change in ear thickness for test compound group/change in ear thickness for control group)×100

Turning to `COc1cccc(Cn2ccc3cc(Nc4ncc(C5CC5)cc4C(=O)O)ccc32)c1` [Example 237, 5-cyclopropyl-2-((1-(3-methoxybenzyl)-1H-indol-5-yl)amino)nicotinic acid], in test [1], the IC50 fell in the range of 10 to 100 nM. The inhibition in vivo at 1 % strength in test [2] is at least 20%.
Turning to `O=C(O)c1cc(C2CC2)cnc1Nc1ccc2c(ccn2Cc2cccc(F)c2)c1` [Example 239, 5-cyclopropyl-2-((1-(3-fluorobenzyl)-1H-indol-5-yl)amino)nicotinic acid], in test [1], the IC50 is at most 10 nM. In test [2], the inhibition in vivo at 1 % strength was at least 20%.
The matching figures for `O=C(O)c1cc(C2CC2)cnc1Nc1ccc2c(ccn2Cc2ccc(F)cc2)c1` [Example 241, 5-cyclopropyl-2-((1-(4-fluorobenzyl)-1H-indol-5-yl)amino)nicotinic acid]: at most 10 nM and at least 20%.
For `CC(C)c1cc(Nc2ncc(C3CC3)cc2C(=O)O)cc2ccn(C)c12` [Example 411, 5-cyclopropyl-2-((7-isopropyl-1-methyl-1H-indol-5-yl)amino)nicotinic acid], in test [1], the IC50 was in the range of 10 to 100 nM. For the same molecule, the inhibition in vivo at 1 % strength in test [2] was at least 20%.
The matching figures for `O=C(O)c1cc(C2CC2)cnc1Nc1cccc2c1ccn2CC1CCC1` [Example 439, 2-((1-(cyclobutylmethyl)-1H-indol-4-yl)amino)-5-cyclopropylnicotinic acid]: at most 10 nM and at least 20%.
`CC(C)CCn1ccc2cc(Nc3ncc(C4CC4)cc3C(=O)O)ccc21` [Example 448, 5-cyclopropyl-2-(1-isopentyl-1H-indol-5-ylamino)nicotinic acid]: the IC50 in test [1] was at most 10 nM. Also, the inhibition in vivo at 1 % strength in test [2] was at least 20%.
The matching figures for `O=C(O)c1cc(C2CC2)cnc1Nc1ccc2c(ccn2Cc2cccc(C(F)(F)F)c2)c1` [Example 450, 5-cyclopropyl-2-((1-(3-(trifluoromethyl)benzyl)-1H-indol-5-yl)amino)nicotinic acid]: at most 10 nM and at least 20%.
The matching figures for `N#Cc1cccc(Cn2ccc3cc(Nc4ncc(C5CC5)cc4C(=O)O)ccc32)c1` [Example 453, 2-((1-(3-cyanobenzyl)-1H-indol-5-yl)amino)-5-cyclopropylnicotinic acid]: 10 to 100 nM and at least 20%.
The matching figures for `Cc1ccccc1Cn1ccc2cc(Nc3ncc(C4CC4)cc3C(=O)O)ccc21` [Example 455, 5-cyclopropyl-2-((1-(2-methylbenzyl)-1H-indol-5-yl)amino)nicotinic acid]: at most 10 nM and at least 20%.
For `Cc1cccc(Cn2ccc3cc(Nc4ncc(C5CC5)cc4C(=O)O)ccc32)c1` [Example 456, 5-cyclopropyl-2-((1-(3-methylbenzyl)-1H-indol-5-yl)amino)nicotinic acid], the IC50 in test [1] is at most 10 nM. In test [2], the inhibition in vivo at 1 % strength was at least 20%.
The matching figures for `Cc1ccc(Cn2ccc3cc(Nc4ncc(C5CC5)cc4C(=O)O)ccc32)cc1` [Example 457, 5-cyclopropyl-2-((1-(4-methylbenzyl)-1H-indol-5-yl)amino)nicotinic acid]: at most 10 nM and at least 20%.
For `O=C(O)c1cc(C2CC2)cnc1Nc1ccc2c(ccn2Cc2ccccc2F)c1` [Example 458, 5-cyclopropyl-2-((1-(2-fluorobenzyl)-1H-indol-5-yl)amino)nicotinic acid], the IC50 in test [1] is at most 10 nM. In addition, in test [2], the inhibition in vivo at 1 % strength is at least 20%.
For `O=C(O)c1cc(C2CC2)cnc1Nc1ccc2c(ccn2Cc2cccc(Cl)c2)c1` [Example 460, 2-((1-(3-chlorobenzyl)-1H-indol-5-yl)amino)-5-cyclopropylnicotinic acid], the IC50 in test [1] was at most 10 nM. Further, the inhibition in vivo at 1 % strength in test [2] was at least 20%.
`Cn1ccc2cc(Nc3ncc(C4CC4)cc3C(=O)O)cc(-c3ccccc3F)c21` [Example 464, 5-cyclopropyl-2-((7-(2-fluorophenyl)-1-methyl-1H-indol-5-yl)amino)nicotinic acid]: in test [1], the IC50 is at most 10 nM. Further, the inhibition in vivo at 1 % strength in test [2] is at least 20%.
As for `Cn1ccc2cc(Nc3ncc(C4CC4)cc3C(=O)O)cc(-c3ccc(F)cc3)c21` [Example 466, 5-cyclopropyl-2-((7-(4-fluorophenyl)-1-methyl-1H-indol-5-yl)amino)nicotinic acid], in test [1], the IC50 is at most 10 nM. Also, in test [2], the inhibition in vivo at 1 % strength is at least 20%.
In the case of `COCCCc1cc(Nc2ncc(C3CC3)cc2C(=O)O)cc2ccn(C)c12` [Example 468, 5-cyclopropyl-2-((7-(3-methoxypropyl)-1-methyl-1H-indol-5-yl)amino)nicotinic acid], in test [1], the IC50 was 10 to 100 nM. In addition, the inhibition in vivo at 1 % strength in test [2] is at least 20%.
The matching figures for `Cn1ccc2cc(Nc3ncc(C4CC4)cc3C(=O)O)cc(CCC3CC3)c21` [Example 470, 5-cyclopropyl-2-((7-(2-cyclopropylethyl)-1-methyl-1H-indol-5-yl)amino)nicotinic acid]: at most 10 nM and at least 20%.
The matching figures for `Cn1ccc2cc(Nc3ncc(C4CC4)cc3C(=O)O)cc(-c3ccccc3C#N)c21` [Example 482, 2-((7-(2-cyanophenyl)-1-methyl-1H-indol-5-yl)amino)-5-cyclopropylnicotinic acid]: at most 10 nM and at least 20%.
As to `Cn1ccc2cc(Nc3ncc(C4CC4)cc3C(=O)O)cc(-c3ccc(C#N)cc3)c21` [Example 484, 2-((7-(4-cyanophenyl)-1-methyl-1H-indol-5-yl)amino)-5-cyclopropylnicotinic acid], the IC50 in test [1] was at most 10 nM. Also, in test [2], the inhibition in vivo at 1 % strength is at least 20%.
The matching figures for `COc1ccccc1-c1cc(Nc2ncc(C3CC3)cc2C(=O)O)cc2ccn(C)c12` [Example 485, 5-cyclopropyl-2-((7-(2-methoxyphenyl)-1-methyl-1H-indol-5-yl)amino)nicotinic acid]: at most 10 nM and at least 20%.
The matching figures for `O=C(O)c1cc(C2CC2)cnc1Nc1ccc2c(ccn2Cc2cc(F)cc(F)c2)c1` [Example 497, 5-cyclopropyl-2-((1-(3,5-difluorobenzyl)-1H-indol-5-yl)amino)nicotinic acid]: at most 10 nM and at least 20%.
The matching figures for `O=C(O)c1cc(C2CC2)cnc1Nc1ccc2ccn(CC3CCCCC3)c2c1` [Example 523, 2-((1-(cyclohexylmethyl)-1H-indol-6-yl)amino)-5-cyclopropylnicotinic acid]: at most 10 nM and at least 20%.
As for `O=C(O)c1cc(C2CC2)cnc1Nc1ccc2c(cnn2CC2CCCCC2)c1` [Example 543, 2-((1-(cyclohexylmethyl)-1H-indazol-5-yl)amino)-5-cyclopropylnicotinic acid], the IC50 in test [1] is at most 10 nM. In addition, the inhibition in vivo at 1 % strength in test [2] was at least 20%.
The matching figures for `Cn1cc(-c2ccccc2F)c2cc(Nc3ncc(C4CC4)cc3C(=O)O)ccc21` [Example 557, 5-cyclopropyl-2-((3-(2-fluorophenyl)-1-methyl-1H-indol-5-yl)amino)nicotinic acid]: 10 to 100 nM and at least 20%.
Turning to `O=C(O)c1cc(C2CC2)cnc1Nc1ccc2c(c1)sc(=O)n2CC1CCCCC1` [Example 565, 2-((3-(cyclohexylmethyl)-2-oxo-2,3-dihydro-1,3-benzothiazol-6-yl)amino)-5-cyclopropylnicotinic acid], the IC50 in test [1] was at most 10 nM. Moreover, in test [2], the inhibition in vivo at 1 % strength was at least 20%.
The matching figures for `Cc1cc2c(ccn2Cc2ccccc2)cc1Nc1ncc(C2CC2)cc1C(=O)O` [Example 585, 2-((1-benzyl-6-methyl-1H-indol-5-yl)amino)-5-cyclopropylnicotinic acid]: at most 10 nM and at least 20%.
On to `Cn1ccc2cc(Nc3ncc(C4CC4)cc3C(=O)O)cc(-c3ccc(F)cc3F)c21` [Example 588, 5-cyclopropyl-2-((7-(2,4-difluorophenyl)-1-methyl-1H-indol-5-yl)amino)nicotinic acid], for which the IC50 in test [1] is at most 10 nM. In addition, the inhibition in vivo at 1 % strength in test [2] is at least 20%.
For `Cn1ccc2cc(Nc3ncc(C4CC4)cc3C(=O)O)cc(CCC(C)(C)C)c21` [Example 595, 5-Cyclopropyl-2-((7-(3,3-dimethylbutyl)-1-methyl-1H-indol-5-yl)amino)nicotinic acid], the IC50 in test [1] was at most 10 nM. For the same molecule, the inhibition in vivo at 1 % strength in test [2] is at least 20%.
For `Cn1nccc1-c1cc(Nc2ncc(C3CC3)cc2C(=O)O)cc2ccn(C)c12` [Example 596, 5-cyclopropyl-2-((1-methyl-7-(1-methyl-1H-pyrazol-5-yl)-1H-indol-5-yl)amino)nicotinic acid], the IC50 in test [1] was at most 10 nM. Moreover, the inhibition in vivo at 1 % strength in test [2] is at least 20%.
Take `CCn1ccc2cc(Nc3ncc(C4CC4)cc3C(=O)O)cc(-c3ccccc3)c21` [Example 597, 5-cyclopropyl-2-((1-ethyl-7-phenyl-1H-indol-5-yl)amino)nicotinic acid]: in test [1], the IC50 was at most 10 nM. Also, in test [2], the inhibition in vivo at 1 % strength was at least 20%.
